In patent publication US20100292231A1, “Indazole Compounds for Treating Inflammatory Disorders, Demyelinating Disorders and Cancers” (priority 2007, published 2010):
Where two headings read alike, the source gives them in different places.

Key:
Assay in all cases: SelectScreen kinase specificity survey
Format in all cases: biochemical
AKT2 (PKB beta) = target: T1, AKT2 (PKB beta) (Homo sapiens, UniProt P31751); conditions: estimated, abridged dose response curve, read-out: Kinase inhibitory activity EC50
T1 construct: purchased Invitrogen (SelectScreen platform)
T1 sequence (P31751 whole entry): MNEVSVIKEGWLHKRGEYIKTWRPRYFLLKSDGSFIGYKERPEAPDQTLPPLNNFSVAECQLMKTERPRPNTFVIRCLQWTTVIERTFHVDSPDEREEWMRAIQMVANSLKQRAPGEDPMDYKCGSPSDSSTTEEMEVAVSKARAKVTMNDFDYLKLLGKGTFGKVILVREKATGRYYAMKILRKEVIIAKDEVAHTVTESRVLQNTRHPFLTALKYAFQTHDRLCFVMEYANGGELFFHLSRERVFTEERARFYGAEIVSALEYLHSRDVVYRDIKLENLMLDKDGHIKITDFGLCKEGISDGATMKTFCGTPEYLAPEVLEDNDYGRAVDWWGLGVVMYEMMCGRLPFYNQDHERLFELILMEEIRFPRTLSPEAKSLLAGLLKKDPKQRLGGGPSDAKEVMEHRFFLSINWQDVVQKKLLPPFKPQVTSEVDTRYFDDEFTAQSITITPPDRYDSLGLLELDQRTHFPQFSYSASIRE
Procedure: (§1) Testing of the compounds described in this invention was carried out using the SelectScreen™ platform from Invitrogen, Inc. (Carlsbad. Calif., USA) and the details of its performance are readily viewed via the web by linking to: http://www.invitrogen.com/downloads/SelectScrn_Brochure.pdf.
(§2) Briefly, the approach is based on treating each specific kinase with a unique substrate and optical reporter system in the presence of ATP at 100 micromolar. In controls, the substrate is phosphorylated and a baseline optimal response is recorded.
(§3) The compounds were then re-tested by adding graded amounts of putative inhibitor which were added in 5 separate increments to generate a dose response curve. The latter is obtained by fitting to a 4 parameter Hill equation, a sigmoid saturation equation.
(§4) The same assay system described in Example 2 can be applied in the determination of kinase specificity. It is well understood by medicinal chemists in the development of kinase inhibitors that the resulting molecules often lack specificity. Not only are homologous kinases inhibited by the same class of compounds, but also non-homologous kinases can be affected by allosteric, induced, activated vs inactivated conformation, and protein folding interactions with the putative inhibitor, which otherwise had been designed to be specific. These off target effects are difficult to predict and can only be ruled in or out by empirically surveying a large set of kinases. It is also understood that changes to scaffolds and variation in their chemical decorations may influence the extent of promiscuity in the patterns of kinase inhibition across kinase classes.
(§5) The following experiment was conducted to address this issue. The indazole compound (IV), described in Example 2 and representative of the new genus was tested along with Symadex against a panel of 230 kinases representative of all known kinases classes. Included in the survey were the Flt3, its mutant, and close relatives in the Class III receptor tyrosine kinase class, together with serine-threonine kinases and atypical kinases many of which share no homology of active site with Flt3 as shown, for example, in the respective “genecard” for each kinase and available for inspection at on the web at http://www.genecards.org/.
(§6) Table 3 lists the estimated EC50 values from an abridged dose response curve for Symadex (C-1311) and CF-123. The kinases are listed alphabetically by Group and Family.

CAMK2A (CaMKII alpha) = target: T2, CAMK2A (CaMKII alpha) (Homo sapiens, UniProt Q9UQM7); conditions: estimated, abridged dose response curve, read-out: Kinase inhibitory activity EC50
T2 construct: purchased Invitrogen, Inc. (SelectScreen platform)
Procedure: as §1, §2, §3, §4, §5, §6

CHEK2 (CHK2) = target: T3, CHEK2 (CHK2) (Homo sapiens, UniProt O96017); conditions: estimated, abridged dose response curve, read-out: Kinase inhibitory activity EC50
T3 construct: purchased Invitrogen, Inc. (SelectScreen platform)
Procedure: as §1, §2, §3, §4, §5, §6

CSNK1G1 (CK1 gamma 1) = target: T4, CSNK1G1 (CK1 gamma 1) (Homo sapiens, UniProt Q9HCP0); conditions: estimated, abridged dose response curve, read-out: Kinase inhibitory activity EC50
T4 construct: purchased Invitrogen (SelectScreen platform)
T4 sequence (Q9HCP0 whole entry): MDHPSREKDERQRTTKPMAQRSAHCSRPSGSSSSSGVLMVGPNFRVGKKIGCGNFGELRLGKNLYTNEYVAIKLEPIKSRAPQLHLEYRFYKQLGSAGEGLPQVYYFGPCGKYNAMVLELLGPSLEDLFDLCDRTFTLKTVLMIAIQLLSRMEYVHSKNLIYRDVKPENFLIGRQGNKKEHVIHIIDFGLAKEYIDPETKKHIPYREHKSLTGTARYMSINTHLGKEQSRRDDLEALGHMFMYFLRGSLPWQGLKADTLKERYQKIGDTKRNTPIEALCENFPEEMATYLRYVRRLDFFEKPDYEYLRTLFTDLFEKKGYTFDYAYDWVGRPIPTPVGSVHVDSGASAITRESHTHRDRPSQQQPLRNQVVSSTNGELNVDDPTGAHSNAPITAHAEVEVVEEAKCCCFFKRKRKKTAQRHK
Procedure: as §1, §2, §3, §4, §5, §6

CSNK1G2 (CK1 gamma 2) = target: T5, CSNK1G2 (CK1 gamma 2) (Homo sapiens, UniProt P78368); conditions: estimated, abridged dose response curve, read-out: Kinase inhibitory activity EC50
T5 construct: purchased Invitrogen (SelectScreen platform)
Procedure: as §1, §2, §3, §4, §5, §6

DAPK3 (ZIPK) = target: T6, DAPK3 (ZIPK) (Homo sapiens, UniProt O43293); conditions: estimated, abridged dose response curve, read-out: Kinase inhibitory activity EC50
T6 construct: purchased Invitrogen, Inc. (SelectScreen platform)
T6 sequence (O43293 whole entry): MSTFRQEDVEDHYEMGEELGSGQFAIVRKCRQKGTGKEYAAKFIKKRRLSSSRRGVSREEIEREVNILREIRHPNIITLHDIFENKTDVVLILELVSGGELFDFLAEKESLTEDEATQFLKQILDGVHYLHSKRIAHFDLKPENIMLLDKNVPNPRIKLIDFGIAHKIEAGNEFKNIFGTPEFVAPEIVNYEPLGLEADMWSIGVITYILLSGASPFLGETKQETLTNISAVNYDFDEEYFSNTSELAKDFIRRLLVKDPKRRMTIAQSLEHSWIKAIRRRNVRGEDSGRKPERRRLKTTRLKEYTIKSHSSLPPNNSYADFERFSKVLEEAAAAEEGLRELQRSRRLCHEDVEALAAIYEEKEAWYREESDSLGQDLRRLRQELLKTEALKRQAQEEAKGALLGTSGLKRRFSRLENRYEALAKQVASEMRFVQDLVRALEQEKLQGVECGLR
Procedure: as §1, §2, §3, §4, §5, §6

EGFR (ErbB1) L861Q = target: T7, EGFR (ErbB1) L861Q (Homo sapiens, UniProt P00533, L861Q); conditions: estimated, abridged dose response curve, read-out: Kinase inhibitory activity EC50
T7 construct: purchased Invitrogen (SelectScreen service)
Procedure: as §1, §2, §3, §4, §5, §6

EGFR (ErbB1) T790M = target: T8, EGFR (ErbB1) T790M (Homo sapiens, UniProt P00533, T790M); conditions: estimated, abridged dose response curve, read-out: Kinase inhibitory activity EC50
T8 construct: purchased Invitrogen (SelectScreen service)
Procedure: as §1, §2, §3, §4, §5, §6

EPHB2 = target: T9, EPHB2 (Homo sapiens, UniProt P29323); conditions: estimated, abridged dose response curve, read-out: Kinase inhibitory activity EC50
T9 construct: purchased Invitrogen (SelectScreen service)
Procedure: as §1, §2, §3, §4, §5, §6

FGR = target: T10, FGR (Homo sapiens, UniProt P09769); conditions: estimated, abridged dose response curve, read-out: Kinase inhibitory activity EC50
T10 construct: purchased Invitrogen (SelectScreen)
Procedure: as §1, §2, §3, §4, §5, §6

FLT1 (VEGFR1) = target: T11, FLT1 (VEGFR1) (Homo sapiens, UniProt P17948); conditions: estimated, abridged dose response curve, read-out: Kinase inhibitory activity EC50
T11 construct: purchased Invitrogen, Inc. (SelectScreen platform)
Procedure: as §1, §2, §3, §4, §5, §6

JAK2 JH1 JH2 V617F = target: T12, JAK2 JH1 JH2 V617F (Homo sapiens, UniProt O60674, V617F); conditions: estimated, abridged dose response curve, read-out: Kinase inhibitory activity EC50
T12 construct: JAK2 JH1 JH2 V617F; purchased Invitrogen (SelectScreen platform)
T12 sequence (O60674 532-1132 V617F limits assumed): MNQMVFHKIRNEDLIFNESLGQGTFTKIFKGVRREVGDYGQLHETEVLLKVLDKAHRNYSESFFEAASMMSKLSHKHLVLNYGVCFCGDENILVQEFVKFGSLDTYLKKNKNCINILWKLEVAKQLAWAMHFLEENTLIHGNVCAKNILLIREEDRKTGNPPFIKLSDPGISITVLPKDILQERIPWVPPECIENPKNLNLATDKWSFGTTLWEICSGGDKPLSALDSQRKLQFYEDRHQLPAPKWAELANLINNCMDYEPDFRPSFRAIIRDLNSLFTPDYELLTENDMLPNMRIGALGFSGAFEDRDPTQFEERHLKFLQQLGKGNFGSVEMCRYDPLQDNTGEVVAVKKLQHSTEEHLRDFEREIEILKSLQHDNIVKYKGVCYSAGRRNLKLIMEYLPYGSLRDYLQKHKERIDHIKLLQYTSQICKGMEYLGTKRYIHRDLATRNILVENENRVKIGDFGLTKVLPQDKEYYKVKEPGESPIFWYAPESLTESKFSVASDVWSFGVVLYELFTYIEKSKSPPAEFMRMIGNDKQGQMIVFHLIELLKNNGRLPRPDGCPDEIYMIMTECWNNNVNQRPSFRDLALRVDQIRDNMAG
Procedure: as §1, §2, §3, §4, §5, §6

LTK (TYK1) = target: T13, LTK (TYK1) (Homo sapiens, UniProt P29376); conditions: estimated, abridged dose response curve, read-out: Kinase inhibitory activity EC50
T13 construct: purchased Invitrogen (SelectScreen platform)
Procedure: as §1, §2, §3, §4, §5, §6

MUSK = target: T14, MUSK (Homo sapiens, UniProt O15146); conditions: estimated, abridged dose response curve, read-out: Kinase inhibitory activity EC50
T14 construct: purchased Invitrogen (SelectScreen platform)
T14 sequence (O15146 24-869): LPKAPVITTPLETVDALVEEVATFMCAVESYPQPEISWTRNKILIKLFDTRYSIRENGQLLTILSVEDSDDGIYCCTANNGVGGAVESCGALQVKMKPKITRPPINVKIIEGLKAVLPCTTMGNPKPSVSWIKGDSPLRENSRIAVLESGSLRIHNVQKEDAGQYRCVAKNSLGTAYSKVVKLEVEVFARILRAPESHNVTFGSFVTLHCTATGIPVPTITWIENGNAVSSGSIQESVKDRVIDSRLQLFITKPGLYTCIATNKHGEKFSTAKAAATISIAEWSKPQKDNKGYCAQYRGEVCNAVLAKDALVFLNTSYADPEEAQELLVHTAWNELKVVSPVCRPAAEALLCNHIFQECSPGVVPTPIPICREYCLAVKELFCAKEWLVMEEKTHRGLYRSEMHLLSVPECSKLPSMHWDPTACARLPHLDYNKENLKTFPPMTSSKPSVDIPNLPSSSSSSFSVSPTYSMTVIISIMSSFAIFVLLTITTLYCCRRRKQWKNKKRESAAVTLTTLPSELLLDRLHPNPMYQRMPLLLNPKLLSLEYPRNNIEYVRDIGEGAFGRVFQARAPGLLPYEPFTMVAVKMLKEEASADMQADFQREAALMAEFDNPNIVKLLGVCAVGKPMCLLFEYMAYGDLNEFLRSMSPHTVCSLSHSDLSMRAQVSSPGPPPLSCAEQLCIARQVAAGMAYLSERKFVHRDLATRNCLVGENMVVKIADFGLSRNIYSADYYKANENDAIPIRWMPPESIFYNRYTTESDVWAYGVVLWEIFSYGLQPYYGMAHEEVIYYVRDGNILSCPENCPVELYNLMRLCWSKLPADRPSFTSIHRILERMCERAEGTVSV
Procedure: as §1, §2, §3, §4, §5, §6

NEK2 = target: T15, NEK2 (Homo sapiens, UniProt P51955); conditions: estimated, abridged dose response curve, read-out: Kinase inhibitory activity EC50
T15 construct: purchased Invitrogen, Inc. (SelectScreen service)
T15 sequence (P51955 whole entry): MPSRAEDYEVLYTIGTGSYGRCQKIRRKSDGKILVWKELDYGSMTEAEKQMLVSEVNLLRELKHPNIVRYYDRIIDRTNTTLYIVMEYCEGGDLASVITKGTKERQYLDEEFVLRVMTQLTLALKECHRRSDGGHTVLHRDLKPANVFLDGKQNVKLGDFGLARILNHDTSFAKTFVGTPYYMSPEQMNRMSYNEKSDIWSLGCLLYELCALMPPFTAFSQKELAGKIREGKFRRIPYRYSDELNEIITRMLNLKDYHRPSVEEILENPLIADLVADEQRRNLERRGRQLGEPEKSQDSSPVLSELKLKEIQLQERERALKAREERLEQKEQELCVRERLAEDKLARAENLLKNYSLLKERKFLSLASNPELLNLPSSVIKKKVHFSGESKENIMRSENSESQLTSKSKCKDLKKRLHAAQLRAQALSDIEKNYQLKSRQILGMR
Procedure: as §1, §2, §3, §4, §5, §6

NTRK3 (TRKC) = target: T16, NTRK3 (TRKC) (Homo sapiens, UniProt Q16288)
T16 construct: purchased Invitrogen, Inc. (SelectScreen platform)
Procedure: as §1, §2, §3, §4, §5, §6

PASK = target: T17, PASK (Homo sapiens, UniProt Q96RG2); conditions: estimated, abridged dose response curve, read-out: Kinase inhibitory activity EC50
T17 construct: purchased Invitrogen, Inc. (SelectScreen platform)
Procedure: as §1, §2, §3, §4, §5, §6

PLK2 = target: T18, PLK2 (Homo sapiens, UniProt Q9NYY3); conditions: estimated, abridged dose response curve, read-out: Kinase inhibitory activity EC50
T18 construct: purchased Invitrogen, Inc. (SelectScreen service)
Procedure: as §1, §2, §3, §4, §5, §6

RET V804L = target: T19, RET V804L (Homo sapiens, UniProt P07949, V804L); conditions: estimated, abridged dose response curve, read-out: Kinase inhibitory activity EC50
T19 construct: purchased Invitrogen (SelectScreen)
T19 sequence (P07949 29-1114 V804L): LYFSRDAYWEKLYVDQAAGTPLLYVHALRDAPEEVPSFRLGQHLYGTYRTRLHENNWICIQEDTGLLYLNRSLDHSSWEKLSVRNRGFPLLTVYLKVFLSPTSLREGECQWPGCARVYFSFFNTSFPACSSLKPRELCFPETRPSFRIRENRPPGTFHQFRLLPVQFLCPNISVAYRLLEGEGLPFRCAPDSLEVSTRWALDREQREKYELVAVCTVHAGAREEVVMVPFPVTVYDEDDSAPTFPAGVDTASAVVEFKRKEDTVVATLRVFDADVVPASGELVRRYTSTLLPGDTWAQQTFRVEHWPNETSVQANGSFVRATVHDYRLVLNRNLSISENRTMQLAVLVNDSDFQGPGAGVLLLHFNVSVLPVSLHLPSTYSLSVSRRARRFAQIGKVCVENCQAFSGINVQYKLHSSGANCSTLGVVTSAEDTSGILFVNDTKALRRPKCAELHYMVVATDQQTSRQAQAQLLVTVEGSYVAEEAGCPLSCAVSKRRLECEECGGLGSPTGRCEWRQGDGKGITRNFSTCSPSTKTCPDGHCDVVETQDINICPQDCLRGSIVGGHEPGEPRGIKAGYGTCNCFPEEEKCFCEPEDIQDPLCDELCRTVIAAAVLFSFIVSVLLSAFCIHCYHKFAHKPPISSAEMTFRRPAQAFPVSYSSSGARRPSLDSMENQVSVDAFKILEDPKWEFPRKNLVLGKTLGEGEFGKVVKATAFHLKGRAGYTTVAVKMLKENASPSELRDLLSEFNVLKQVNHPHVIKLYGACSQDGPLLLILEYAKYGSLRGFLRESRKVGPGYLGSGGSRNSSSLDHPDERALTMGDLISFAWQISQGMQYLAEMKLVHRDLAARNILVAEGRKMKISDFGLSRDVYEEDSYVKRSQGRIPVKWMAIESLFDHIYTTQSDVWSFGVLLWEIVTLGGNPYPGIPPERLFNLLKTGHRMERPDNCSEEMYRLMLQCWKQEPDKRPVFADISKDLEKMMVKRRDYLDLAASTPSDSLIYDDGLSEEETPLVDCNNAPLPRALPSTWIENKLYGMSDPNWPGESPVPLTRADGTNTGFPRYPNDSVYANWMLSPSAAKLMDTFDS
Procedure: as §1, §2, §3, §4, §5, §6

ROCK2 = target: T20, ROCK2 (Homo sapiens, UniProt O75116); conditions: estimated, abridged dose response curve, read-out: Kinase inhibitory activity EC50
T20 construct: purchased Invitrogen (SelectScreen platform)
Procedure: as §1, §2, §3, §4, §5, §6

RPS6KA5 (MSK1) = target: T21, RPS6KA5 (MSK1) (Homo sapiens, UniProt O75582); conditions: estimated, abridged dose response curve, read-out: Kinase inhibitory activity EC50
T21 construct: purchased Invitrogen, Inc. (SelectScreen platform)
Procedure: as §1, §2, §3, §4, §5, §6

SGK (SGK1) = target: T22, SGK (SGK1) (Homo sapiens, UniProt O00141); conditions: estimated, abridged dose response curve, read-out: Kinase inhibitory activity EC50
T22 construct: purchased Invitrogen, Inc. (SelectScreen platform)
T22 sequence (O00141 whole entry): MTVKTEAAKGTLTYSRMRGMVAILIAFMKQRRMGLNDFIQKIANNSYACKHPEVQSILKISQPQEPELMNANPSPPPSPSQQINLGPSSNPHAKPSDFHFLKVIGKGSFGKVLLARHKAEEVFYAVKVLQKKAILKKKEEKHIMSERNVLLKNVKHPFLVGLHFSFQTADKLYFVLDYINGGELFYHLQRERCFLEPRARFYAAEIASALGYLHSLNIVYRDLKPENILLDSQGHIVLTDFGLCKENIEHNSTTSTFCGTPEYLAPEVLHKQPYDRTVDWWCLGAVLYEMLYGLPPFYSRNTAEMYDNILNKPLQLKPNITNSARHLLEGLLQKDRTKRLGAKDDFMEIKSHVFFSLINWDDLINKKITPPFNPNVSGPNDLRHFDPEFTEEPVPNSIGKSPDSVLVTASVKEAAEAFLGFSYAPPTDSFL
Procedure: as §1, §2, §3, §4, §5, §6

SRPK1 = target: T23, SRPK1 (Homo sapiens, UniProt Q96SB4); conditions: estimated, abridged dose response curve, read-out: Kinase inhibitory activity EC50
T23 construct: purchased Invitrogen, Inc. (SelectScreen service)
Procedure: as §1, §2, §3, §4, §5, §6

STK22B (TSSK2) = target: T24, STK22B (TSSK2) (Homo sapiens, UniProt Q96PF2); conditions: estimated, abridged dose response curve, read-out: Kinase inhibitory activity EC50
T24 construct: purchased Invitrogen, Inc. (SelectScreen platform)
Procedure: as §1, §2, §3, §4, §5, §6

TEK (Tie2) = target: T25, TEK (Tie2) (Homo sapiens, UniProt Q02763); conditions: estimated, abridged dose response curve, read-out: Kinase inhibitory activity EC50
T25 construct: purchased Invitrogen (SelectScreen)
Procedure: as §1, §2, §3, §4, §5, §6

TYRO3 (RSE) = target: T26, TYRO3 (RSE) (Homo sapiens, UniProt Q06418); conditions: estimated, abridged dose response curve, read-out: Kinase inhibitory activity EC50
T26 construct: purchased Invitrogen (SelectScreen service)
Procedure: as §1, §2, §3, §4, §5, §6

Compound	EC50 (AKT2 (PKB beta)) [µM]	EC50 (CAMK2A (CaMKII alpha)) [µM]	EC50 (CHEK2 (CHK2)) [µM]	EC50 (CSNK1G1 (CK1 gamma 1)) [µM]	EC50 (CSNK1G2 (CK1 gamma 2)) [µM]	EC50 (DAPK3 (ZIPK)) [µM]	EC50 (EGFR (ErbB1) L861Q) [µM]	EC50 (EGFR (ErbB1) T790M) [µM]	EC50 (EPHB2) [µM]	EC50 (FGR) [µM]	EC50 (FLT1 (VEGFR1)) [µM]	EC50 (JAK2 JH1 JH2 V617F) [µM]	EC50 (LTK (TYK1)) [µM]	EC50 (MUSK) [µM]	EC50 (NEK2) [µM]	EC50 (PASK) [µM]	EC50 (PLK2) [µM]	EC50 (RET V804L) [µM]	EC50 (ROCK2) [µM]	EC50 (RPS6KA5 (MSK1)) [µM]	other results
CN(C)CCCNc1ccc2ncn3c4ccc5[nH]ncc5c4c(=O)c1c23 [Compound (IV)]	> 5	0.789	> 5	> 5	> 5	0.973	> 5	4.01	> 5	0.367	> 5	> 5	> 5	1.43	> 5	1.23	> 5	0.864	0.963	> 5	EC50 (NTRK3 (TRKC); NTRK3 (TRKC), estimated, abridged dose response curve, read-out: Kinase inhibitory activity EC50): 0.24 µM; EC50 (SGK (SGK1)): 3.45 µM; EC50 (SRPK1): > 5 µM; EC50 (STK22B (TSSK2)): > 5 µM; EC50 (TEK (Tie2)): > 5 µM; EC50 (TYRO3 (RSE)): 3.57 µM
CCN(CC)CCNc1ccc2ncn3c4ccc(O)cc4c(=O)c1c23 [Symadex, 5-(2-(diethylamino)ethylamino)-8-hydroxy-6H-imidazo[4,5,1-de]acridin-6-one, reference compound]	> 5	> 5	> 5	> 5	> 5	> 5	> 5	2.9	> 5	1.27	> 5	> 5	> 5	3.71	> 5	4.32	> 5	0.735	> 5	> 5	EC50 (NTRK3 (TRKC)): 3.72 µM; EC50 (SGK (SGK1)): 2.71 µM; EC50 (SRPK1): > 5 µM; EC50 (STK22B (TSSK2)): > 5 µM; EC50 (TEK (Tie2)): > 5 µM; EC50 (TYRO3 (RSE)): 2.44 µM
